Assay results taken from ChEMBL document CHEMBL4342491, “Development of a Versatile and Sensitive Direct Ligand Binding Assay for Human NR5A Nuclear Receptors” (ACS Med Chem Lett, 2020).

Columns and labels:
[1] = molecular target: T1, Steroidogenic factor 1 (Homo sapiens, UniProt Q13285)
Description: Displacement of 6N-FAM from SF1 LBD (218 to 461 residues) (unknown origin) expressed in Escherichia coli BL21 pLysS by competitive binding based fluorescence polarization assay

[2] = molecular target: T1, Steroidogenic factor 1; experiment: Binding affinity to human SF1 LBD (218 to 461 residues) expressed in Escherichia coli BL21 by electrophoretic mobility shift assay
[3] = molecular target: T1, Steroidogenic factor 1; experiment: Binding affinity to SF1 LBD (218 to 461 residues) (unknown origin) expressed in Escherichia coli BL21 pLysS measured after overnight incubation by fluorescence polarization assay
[4] = molecular target: Nuclear receptor subfamily 5 group A member 2 (Homo sapiens) (UniProt O00482); experiment: Binding affinity to human LRH1 LBD expressed in Escherichia coli BL21 by electrophoretic mobility shift assay
[5] = molecular target: T1, Steroidogenic factor 1; experiment: Inhibition of Gal4-fused human SF1 LBD (198 to 462 residues) expressed in CHO-K1 cells; format: cell-based

T1 sequence (Q13285 whole entry, the tested form may be a part): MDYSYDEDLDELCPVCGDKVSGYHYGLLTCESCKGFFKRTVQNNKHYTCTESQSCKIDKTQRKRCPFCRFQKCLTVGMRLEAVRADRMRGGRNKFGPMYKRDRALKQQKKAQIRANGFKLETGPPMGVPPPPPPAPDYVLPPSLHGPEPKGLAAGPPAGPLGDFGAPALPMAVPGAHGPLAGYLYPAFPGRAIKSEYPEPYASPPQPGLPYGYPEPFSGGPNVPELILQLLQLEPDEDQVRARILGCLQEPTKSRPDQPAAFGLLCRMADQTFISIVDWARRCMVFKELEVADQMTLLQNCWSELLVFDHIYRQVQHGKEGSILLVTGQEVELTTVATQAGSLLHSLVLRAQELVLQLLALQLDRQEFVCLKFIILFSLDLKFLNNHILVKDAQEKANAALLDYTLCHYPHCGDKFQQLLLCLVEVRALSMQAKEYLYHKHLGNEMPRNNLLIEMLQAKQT
Chain of Nuclear receptor subfamily 5 group A member 2 (Homo sapiens) (O00482 whole entry, the tested form may be a part): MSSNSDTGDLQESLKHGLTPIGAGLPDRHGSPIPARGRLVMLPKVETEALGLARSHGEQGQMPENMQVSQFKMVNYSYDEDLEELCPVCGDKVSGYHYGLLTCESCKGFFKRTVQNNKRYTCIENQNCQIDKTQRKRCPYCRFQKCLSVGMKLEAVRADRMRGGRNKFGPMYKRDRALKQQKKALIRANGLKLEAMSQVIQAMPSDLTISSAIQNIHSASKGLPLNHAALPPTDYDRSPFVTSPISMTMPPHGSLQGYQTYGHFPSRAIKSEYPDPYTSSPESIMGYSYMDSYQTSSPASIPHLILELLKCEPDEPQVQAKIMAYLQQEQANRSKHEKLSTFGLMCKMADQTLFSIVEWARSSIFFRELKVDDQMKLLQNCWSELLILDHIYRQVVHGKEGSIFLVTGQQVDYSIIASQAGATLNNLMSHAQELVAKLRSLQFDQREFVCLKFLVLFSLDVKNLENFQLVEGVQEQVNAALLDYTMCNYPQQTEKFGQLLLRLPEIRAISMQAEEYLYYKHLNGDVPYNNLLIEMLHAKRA

Row | Ki [1] [nM] | Structure (SMILES) | further results
1 | 34700 | CCCCNC(=O)c1cc(C(C)(C)C)cc(C(C)(C)C)c1O | –
2 | 418 | CCCCC/C=C\C/C=C\C/C=C\C/C=C\CCCC(=O)OC(COC(=O)CCCCCCCCCCCCCCCCC)COP(=O)(O)O[C@@H]1[C@H](O)[C@H](O)[C@@H](OP(=O)(O)O)[C@H](OP(=O)(O)O)[C@H]1O (some centres undefined) | Activity [2]: 250 nM
3 | – | C=C(c1ccccc1)[C@@]12CC[C@H](NS(N)(=O)=O)[C@@H]1CC(CCCCCCCCCC(=O)Nc1ccc3c(c1)C(=O)OC31c3ccc(O)cc3Oc3cc(O)ccc31)=C2c1ccccc1 | Kd [3]: 12.3 nM
4 | 7800 | C=C(c1ccccc1)[C@@]12CC[C@H](N)[C@@H]1CC(CCCCCCCCCC(=O)OC)=C2c1ccccc1 | –
5 | – | CCCC(=O)OC[C@H](COP(=O)(O)O[C@H]1[C@H](O)[C@@H](OP(=O)(O)O)[C@H](OP(=O)(O)O)[C@@H](OP(=O)(O)O)[C@H]1O)OC(=O)CCC | Activity [4]: 120 nM
6 | 1400 | C=C(c1ccccc1)[C@@]12CC[C@H](NS(N)(=O)=O)C1CC(CCCCCC)=C2c1ccccc1 (some centres undefined) | –
7 | – | CCOC(=O)C(C)Oc1cccc2c(=O)n(CC(=O)Nc3ccc4c(c3)OCCO4)ccc12 (centres undefined) | IC50 [5]: 30 nM

Row | Structure (SMILES) | Ki [1] [nM] | further results
8 | CCCCCCCCCCCC(=O)OC[C@H](COP(=O)([O-])OCC[N+](C)(C)C)OC(=O)CCCCCCCCCCC | 850 | –
